One data set has as its system C57/BL6 WT mice. The data set can be described thus: Contextual fear conditioning paradigm, memory formation in wild type mice. To be noted: for memory formation, tested 24 hours after training: 1 mg/kg for 10 days, WT mice, n=20 (FIG. 45B); for memory as measured by % freezing, contextual fear conditioning: HDAC inhibitor injected for 10 days, WT mice (FIG. 26). The data set is classed as in vivo. The method, then: C57/BL6 WT mice were injected with vehicle or HDAC inhibitor for 10 days.
The total number of mice in each group is indicated in the bottom of each column of FIG. 45A. Mice were subsequently trained with contextual fear conditioning paradigm and tested 24 hours after training. […] After 10 day's dosing, mice were trained with contextual fear conditioning paradigm and tested 24 hours after training.

Data set [1] in a line: Solubility study of CI-994 HCl salt in saline. The data set is classed as physicochemical. On the procedure:
2. […] Shaken the tube manually. Observation: Solution becomes hazy. 4. Sonicated the above solution of step 3 for 5 minutes. Observation: Solution becomes white colored cloudy solution when 0.9% saline solution was added. […] 5. […] 6. Supernatant clear solution of step 5 was used for analysis.

In a further data set the test system is HDAC isoforms. The data set can be described thus: Enzymatic inhibitory activity against known HDAC isoforms. The format is biochemical, human. To be noted: for time dependent enzymatic inhibitory activity against HDAC isoforms: 1-3 h preincubation. From the text: Comparison was also made to other known memory enhancers and their ability to inhibit the same HDAC enzymes.

The test system of the next data set is HEK293 cells. As to the kind of experiment: Histone acetylation marks in HEK293 cells, Western blot. The data set is classed as cell-based. To be noted: whole HEK293 cells, 10 uM, 6 hour.
Data set [2] relates to TCF/LEF luciferase reporter gene. The data set can be described thus: TCF/LEF luciferase reporter gene in human neural progenitor cells. As to conditions: read-out: EC50 of TCF/LEF luciferase reporter activation. The data set is classed as cell-based. For orientation: Reporter assays use an easily measured gene product as a stand-in for the process of interest.
Data set [3] concerns mice. As to the kind of experiment: Three-day fear memory extinction trials with reminder shock. To be noted: 25 mg/kg. The format is in vivo. On the procedure: Two groups of mice were trained in contextual fear conditioning for two times before a three-day-extinction trials. In each extinction day, mice were exposed to the training box without any shock for 3 minutes and returned back to their home-cage. […] The freezing behavior of each mouse in the training cage were monitored. To test the fear memory recovery, a reminder shock was given one hour after the last extinction trial.

Another data set concerns Wild type C57/BL6 mice. The data set can be described thus: Fear extinction under normal extinction paradigm. The format is in vivo. As to conditions: DCS 15 mg/kg or CI-994 30 mg/kg, 21 minute extinction trial. From the text: Wild type C57/BL6 mice were trained with contextual fear conditioning paradigms.
Data set [4] deals with mice. As to the kind of experiment: Fear extinction under the reconsolidation paradigm. The format is in vivo. To be noted: for spontaneous recovery of fear memory, freezing one month after initial training: reconsolidation paradigm; for fear extinction, freezing time of first trial in each day: reconsolidation training 4 days, n=20. On the procedure: Mice were trained in contextual fear conditioning paradigm with two shocks. The mice subsequently received the reconsolidation training during the following 4 days. […] One hour after injection, mice were placed back to the same context for 3 minutes. The freezing time of the first trial in each day was measured and plotted.
Spontaneous recovery of the fear memory were tested one month after the initial fear memory training. […] (students t-Test).

Data set [5] has as its system mice. As to the kind of experiment: Extinction of fear memory under specific context. The data set is classed as in vivo. As to conditions: 30 mg/kg one hour after retrieval, 3 days, n=10. The method, then: Mice were placed in a novel training box for 3 minutes and received tone for 30 seconds, followed by electrical shocks. […] Twenty-four hours after the second fear conditioning training, mice were exposed to the training chamber (context only) to retrieve the context dependant memory. […] One hour after injection, mice were placed back in the chamber for 3 min for the extinction training. The reactivation-extinction trials were performed once in each day for 3 days and freezing level was measured 5 days after the last training. (n=10 for each group).

A further data set has as its system WT C57/BL6 mice. As to the kind of experiment: Single dose before one 21 minute fear extinction trial. The data set is classed as in vivo. On the procedure: The mice were exposed to the fear-associated context for 21 minutes without pairing with shock. Freezing behavior was measured in the first 3 minutes and last 3 minutes during the extinction training, 24 hrs after extinction and 30 days after extinction. (n=20 for each group).

Data set [6] relates to mice. The data set can be described thus: Extinction of traumatic long-term memories. The data set is classed as in vivo. From the text:
30 days after training, mice were exposed to two 3-min extinction sessions per day in the same context as they were trained. […] 30 days after fear conditioning to both the context (context A) and the cue (3×0.8 mA shock for 2 sec paired with a tone) mice were first exposed to the cue alone in a different context (context B) than the one in which training occurred (context A), and subsequently to two 3-min extinction sessions per day in the same context as they were trained (context A). After the end of this extinction session, mice were again exposed to context B, and their memory tested.

Data set [7] deals with CK-p25 mice. As to the kind of experiment: Local field potential recording in hippocampus CA1 of CK-p25 mice. The format is in vivo. To be noted: 1 mg/kg i.p. 10 days, recorded 10 days after treatment.
A short description of data set [8]: Maximal solubility of CI-994 free base in solvents, HPLC. The format is physicochemical.
The test system of data set [9] is HDAC2 overexpression mice.
Procedure: Mice were trained using contextual fear conditioning paradigm on day 0.
For the memory reconsolidation paradigm, after the fear extinction training as described above, mice were housed in the home cage for one month. Mice were subsequently re-exposed to the conditioning box for 3 min, their freezing behavior measured.
The conditions of data set [10]: oral dose level of less than 15 mg/m2 once a day, humans; cited from earlier work.
The subject of data set [11] is CK-p25 mice. As to the kind of experiment: Morris watermaze in CK-p25 mice. As to conditions: 1 mg/kg i.p. for 10 days.
Procedure: All 3 groups of mice were trained with the standard Morris watermaze paradigm for 6 days. Mice were placed in the swimming pool for 60 seconds to search for the hidden platform in each trial. A total of 3 trials were performed in each day with 5 min inter-trial-intervals. The average time each group of mice spent to find the platform is plotted (escape latency).
The two groups of mice were trained in the Morris watermaze paradigm for 7 days as described above. On day 8, platform was removed and mice were tested for memory retrieval. The average time each group of mice spent in the target quadrant is plotted.
Where [12] appears, read: target concentration 5 mg/ml, 0.9% NaCl.

pEC50: −log10 of the molar value. ≈ marks a conversion by molar mass, not a printed value. Entries after “also recorded” stand apart in the source; their conditions may differ. Read-outs that look alike come from different tables or passages of the source.

Data on eight molecules can be found in patent US8841346B2 (Massachusetts Institute of Technology, priority 2009, dated 2014).

Take `COc1cc2c(cc1OC)C(=O)C(CC1CCN(Cc3ccccc3)CC1)C2` (stereo not drawn) [Aricept, reference compound]: the “memory formation, tested 24 hours after training” value with C57/BL6 WT mice is “did not show any effects in memory formation”.
Turning to `CC(=O)Nc1ccc(C(=O)Nc2ccccc2N)cc1.Cl` [BROAD-SAI-140], the “improvement in solubility in aqueous solution versus CI-994” value in data set [1] was found to be 35 ×. For the same molecule, the “chemical and solution stability, HPLC” value in [1] (saline solution) is ≥ 2 h. In data set [1] (setting [12]), the “Amount of drug dissolved in mg/ml of saline, 2 hours” value came out at 2.841 mg/mL and the “Amount of drug dissolved in mg/ml of saline, Initial” value was 2.852 mg/mL.
For the molecule `CC(=O)Nc1ccc(C(=O)Nc2ccccc2N)cc1` [CI-994, 4-(acetylamino)-N-(2-aminophenyl)benzamide], in the data set on HDAC isoforms, the “enzymatic inhibitory activity against HDAC isoforms (inhibition profile)” value is “primarily Class I HDAC inhibitors” and the “time dependent enzymatic inhibitory activity against HDAC isoforms” value is given as “primarily Class I HDAC inhibitors”. For the same molecule, the “enzymatic inhibitory activity against HDAC isoforms (inhibition profile)” value in the data set with HDAC isoforms (listed as CI994) was “inhibits HDAC1, 2 and 3”. For the same molecule, in the data set on HEK293 cells, the “acetylation levels over DMSO controls (anti-acetyl H4K12)” value is given as “increased acetylation levels over DMSO controls”. Further, in [2], the pEC50 was ~5.15. Further, in the data set on C57/BL6 WT mice, the “memory formation, tested 24 hours after training” value was “significantly increased memory formation”. In addition, in the data set on C57/BL6 WT mice (1 mg/kg, every day and alternate day dosing schedule), the “memory as measured by % time freezing” value was “equally effective”. Also, in the data set on C57/BL6 WT mice (30 mg/kg every day for 10 days), the “memory as measured by % time freezing” value is reported as “improves the memory of mice”. For the same molecule, the “memory as measured by % time freezing” value with C57/BL6 WT mice (30 mg/kg, alternate day dosing schedule) is recorded as “equally effective”. Besides, the “memory as measured by % time freezing, dose response” value in the data set on C57/BL6 WT mice (10, 5, and 1 mg/kg every day for 10 days) is recorded as “efficacious as a memory enhancer at all doses”. For the same molecule, in the data set on mice [3], the “decay of freezing time before and after injection, extinction day 1” value is “faster decay of freezing time”; the “decay of freezing time before and after injection, extinction day 2” value is given as “faster decay of freezing time”. Further, in the data set on mice [3] (N=8), the “extinction of fear memory, freezing during first 3-min-exposure in each day” value is “much faster”. Moreover, the “freezing time on the third day” value in the data set on mice [3] (p<0.05) is “significantly less freezing time than the control group”. Also, the “freezing level 24 hours after the reminder shock” value with mice [3] (versus control group) is “No significant difference”. The “freezing 24 hours after the extinction training” value in the data set with Wild type C57/BL6 mice is on record as “showed significant reduction in freezing”. In addition, in the data set with mice [4], the “spontaneous recovery of fear memory, freezing one month after initial training” value was “significantly lower freezing level than the vehicle group” and the “fear extinction, freezing time of first trial in each day” value is “significantly facilitated fear extinction”. For the same molecule, the “freezing level 5 days after the last training” value with mice [5] is “enhanced extinction of fear memory under specific context”. For the same molecule, the “spontaneous recovery of fear memory 30 days after extinction training” value in the data set on WT C57/BL6 mice (one dose i.p. 30 mg/kg) was “not evident”. Further, in the data set on WT C57/BL6 mice (one dose i.p. 30 mg/kg one hour before 21 minute extinction trial, n=20), the “freezing behavior after single extinction exposure” value is listed as “effective reduction in freezing”. Besides, the “memories formed in a different context (context B)” value in the data set with mice [6] (5 mg/kg (FIG. 49E)) was “did not affect memories formed in a context different from the extinction context”. In addition, in the data set with mice [6] (5 mg/kg, p<0.001 (FIG. 49B)), the “freezing level during extinction sessions 30 days after training” value was “significantly reduced the animals' freezing level”. In the data set on mice [6] (5 mg/kg, p<0.001 (FIG. 49C)), the “freezing levels 30 days after the last extinction trial” value is “still show reduced freezing levels compared to vehicle-treated ones”. The “freezing level in the extinction context (context A)” value with mice [6] (5 mg/kg, p<0.05 (FIG. 49F)) was “exclusively reduced the animals' freezing level in the context in which the extinction had occurred”. Besides, the “freezing levels 30 days after last extinction trials, extinguished context” value in the data set with mice [6] (5 mg/kg, p<0.05 (FIG. 49G)) is “still show reduced freezing levels compared to vehicle-treated ones”. The “LFP oscillation power in area CA1 (theta and gamma band)” value in the data set with CK-p25 mice [7] is on record as “significantly increased the oscillation power”. Besides, in data set [8] (maximal solubility, free base), the “Conc. in Vehicles, DMA” value worked out at 246040 µg/mL; the “Conc. in Vehicles, DMSO” value stood at 266150 µg/mL; the “Conc. in Vehicles, EtOH” value stood at 2120 µg/mL; the “Conc. in Vehicles, NMP” value is 243280 µg/mL. In data set [8] (maximal solubility, free base, 0.9% NaCl, at least 2 h), the “Conc. in Vehicles, Saline” value turned out to be 80 µg/mL. In data set [8] (saline (0.9% NaCl), saline or isotonic, read-out: Conc. in Vehicles, Saline), the solubility at 2 h amounted to 80 µg/mL (≈ 297 µM). In addition, the “freezing level after 5 extinction trials” value in data set [9] (HDAC2 overexpressing mice, 30 mg/kg i.p., 2 doses) is given as 30%. In data set [9] (HDAC2 overexpression mice), the “freezing levels after one month of spontaneous recovery” value was “significantly reduced the freezing levels”. The “fear memory extinction in WT mice” value in data set [9] (WT mice, 30 mg/kg i.p.) was “extinct significantly faster than the vehicle treated group”. In [10], the “serum AUC, average (variance as percentage of the mean)” value is on record as 9500(62.7%) ng·hr/mL and the “serum Cmax, average (variance as percentage of the mean)” value is listed as 570(25.1%) ng/mL. Further, the “time spent in the target quadrant, memory retrieval on day 8” value in the data set on CK-p25 mice [11] was “rescued the memory retrieval deficits”. Moreover, the “escape latency (time to find hidden platform)” value in the data set with CK-p25 mice [11] (6 days training) is given as “showed similar learning curve as control mice”.
In the case of `N[C@@H]1CONC1=O` [DCS, D-cycloserine, reference compound], in the data set on Wild type C57/BL6 mice, the “freezing 24 hours after the extinction training” value was “showed significant reduction in freezing”. In the data set with mice [4], the “spontaneous recovery of fear memory, freezing one month after initial training” value was “no significant difference comparing to the vehicle group” and the “fear extinction, freezing time of first trial in each day” value is recorded as “but not DCS, significantly facilitated fear extinction”.
With `Nc1ccccc1NC(=O)c1ccc(CNc2nccc(-c3cccnc3)n2)cc1` [MGCD0103, reference compound], the “memory as measured by % freezing, contextual fear conditioning” value in the data set on C57/BL6 WT mice was “not efficacious”; with C57/BL6 WT mice (listed as MGC-D0103), “did not result in improved cognition”.
For `Nc1ccccc1NC(=O)c1ccc(CNC(=O)OCc2cccnc2)cc1` [MS-275, reference compound], the “memory as measured by % freezing, contextual fear conditioning” value with C57/BL6 WT mice is “not efficacious; also recorded: did not result in improved cognition”.
Take `O=C(CCCCCCC(=O)Nc1ccccc1)NO` [SAHA, reference compound]: the “acetylation levels over DMSO controls (anti-acetyl H4K12)” value in the data set on HEK293 cells is “increased acetylation levels over DMSO controls”.
For the molecule `Nc1ccc(C(=O)Nc2ccccc2N)cc1` [dinaline], in the data set with HDAC isoforms, the “enzymatic inhibitory activity against HDAC isoforms (inhibition profile)” value was “primarily Class I HDAC inhibitors” and the “time dependent enzymatic inhibitory activity against HDAC isoforms” value is listed as “primarily Class I HDAC inhibitors”.
